Key:
Test in all cases: In vitro competitive activity-based protein profiling (gel-based, FP-Rh or HT-01 probe)
Type in all cases: biochemical
MAGL = target: T1, MAGL (Mus musculus, UniProt O35678); settings: for inhibition at 10 µM: 10 μM inhibitor; for IC50: mouse brain membrane fraction or cell lysates, 30 min preincubation at 37° C., read-out: Mouse (IC50 value, nM) MAGL; for inhibition at 1 µM: 1 μM inhibitor
T1 construct: Proteomes (mouse brain membrane fraction or cell lysates); from tissue; host or cells: mouse brain membrane fraction (or cell lysates, not specified)
T1 sequence (O35678 1-303): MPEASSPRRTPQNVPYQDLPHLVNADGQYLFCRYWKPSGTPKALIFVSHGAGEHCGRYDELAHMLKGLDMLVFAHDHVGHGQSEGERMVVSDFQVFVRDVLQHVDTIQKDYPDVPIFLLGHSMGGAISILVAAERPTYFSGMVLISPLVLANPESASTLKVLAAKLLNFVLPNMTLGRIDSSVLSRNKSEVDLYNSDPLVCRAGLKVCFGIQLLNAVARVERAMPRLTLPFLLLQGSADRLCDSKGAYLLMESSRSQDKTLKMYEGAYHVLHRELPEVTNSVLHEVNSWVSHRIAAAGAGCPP
Procedure: (§1) In Vitro Competitive Activity-Based Protein Profiling.
(§2) Proteomes (mouse brain membrane fraction or cell lysates) (50 μL, 1.0 mg/mL total protein concentration) were preincubated with varying concentrations of inhibitors at 37° C. After 30 min, FP-Rh or HT-01 ([…], 50 μM in DMSO) was added and the mixture was incubated for another 30 min at 37° C. Reactions were quenched with SDS loading buffer (15 μL—4×) and run on SDS-PAGE. Following gel imaging, serine hydrolase activity was determined by measuring fluorescent intensity of gel bands corresponding to MAGL, ABHD6, FAAH, and PLA2G7 using ImageJ 1.43u software.

FAAH = target: T2, FAAH (Mus musculus, UniProt O08914); settings: for inhibition at 10 µM: 10 μM inhibitor, read-out: % Inhibition at 10 μM, B = FAAH; for IC50: mouse brain membrane fraction or cell lysates, 30 min preincubation at 37° C., read-out: Mouse (IC50 value, nM) FAAH; for inhibition at 1 µM: 1 μM inhibitor, read-out: % Inhibition at 1 μM, B = FAAH
T2 construct: Proteomes (mouse brain membrane fraction or cell lysates); from tissue; host or cells: mouse brain membrane fraction (or cell lysates, not specified)
T2 sequence (O08914 1-579): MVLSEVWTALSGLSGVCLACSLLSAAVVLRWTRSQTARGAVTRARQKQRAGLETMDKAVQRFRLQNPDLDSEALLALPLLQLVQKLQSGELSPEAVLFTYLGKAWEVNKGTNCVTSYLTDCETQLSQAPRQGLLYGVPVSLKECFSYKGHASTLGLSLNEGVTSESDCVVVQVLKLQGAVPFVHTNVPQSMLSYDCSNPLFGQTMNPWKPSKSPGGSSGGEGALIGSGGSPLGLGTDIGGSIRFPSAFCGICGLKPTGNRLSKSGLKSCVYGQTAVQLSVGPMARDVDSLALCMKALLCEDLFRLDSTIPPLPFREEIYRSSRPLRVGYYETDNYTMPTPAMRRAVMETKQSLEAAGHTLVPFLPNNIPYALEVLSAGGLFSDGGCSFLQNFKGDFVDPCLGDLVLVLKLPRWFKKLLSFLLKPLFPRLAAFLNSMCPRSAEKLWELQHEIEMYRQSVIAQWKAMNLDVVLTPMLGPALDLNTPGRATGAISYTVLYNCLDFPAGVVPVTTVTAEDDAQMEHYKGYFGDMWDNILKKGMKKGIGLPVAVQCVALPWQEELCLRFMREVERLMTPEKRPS
Procedure: as §1, §2

ABHD6 = target: T3, ABHD6 (Mus musculus, UniProt Q8R2Y0); settings: for inhibition at 10 µM: 10 μM inhibitor, read-out: % Inhibition at 10 μM, C = ABHD6; for IC50: mouse brain membrane fraction or cell lysates, 30 min preincubation at 37° C., read-out: Mouse (IC50 value, nM) ABHD6; for inhibition at 1 µM: 1 μM inhibitor, read-out: % Inhibition at 1 μM, C = ABHD6
T3 construct: Proteomes (mouse brain membrane fraction or cell lysates); from tissue; host or cells: mouse brain membrane fraction (or cell lysates, not specified)
T3 sequence (Q8R2Y0 1-336): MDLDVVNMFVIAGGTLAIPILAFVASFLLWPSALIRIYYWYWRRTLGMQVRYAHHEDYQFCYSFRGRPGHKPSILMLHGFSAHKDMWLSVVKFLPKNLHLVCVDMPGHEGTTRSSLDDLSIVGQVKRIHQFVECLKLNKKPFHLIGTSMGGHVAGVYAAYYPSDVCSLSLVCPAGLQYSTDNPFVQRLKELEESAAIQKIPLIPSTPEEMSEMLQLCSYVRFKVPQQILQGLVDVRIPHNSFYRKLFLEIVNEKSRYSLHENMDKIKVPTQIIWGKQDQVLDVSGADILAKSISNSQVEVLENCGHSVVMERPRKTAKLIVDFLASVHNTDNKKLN
Procedure: as §1, §2

| SMILES | inhibition at 10 µM (MAGL) [%] | inhibition at 10 µM (FAAH) [%] | inhibition at 10 µM (ABHD6) [%] | IC50 (MAGL) [nM] | IC50 (FAAH) [nM] | IC50 (ABHD6) [nM] | inhibition at 1 µM (MAGL) [%] | inhibition at 1 µM (FAAH) [%] | inhibition at 1 µM (ABHD6) [%] |
| --- | --- | --- | --- | --- | --- | --- | --- | --- | --- |
| Cc1cnn(C(=O)NCc2ccc3ccccc3c2)c1 [Example 44, 4-Methyl-N-(naphthalen-2-ylmethyl)-1H-pyrazole-1-carboxamide] | < 25 | < 25 | < 25 | – | – | – | – | – | – |
| O=C(N1CCN(C(c2ccc(Cl)cc2)c2ccc(Cl)cc2)CC1)n1cccn1 [Example 46, (4-(Bis(4-chlorophenyl)methyl)piperazin-1-yl)(1H-pyrazol-1-yl)methanone] | – | – | – | < 100 | > 1000 | > 1000 | – | – | – |
| O=C(N1CCN(Cc2ccc(Cl)cc2N2CCOCC2)CC1)n1cc(Cl)cn1 [Example 47, (4-Chloro-1H-pyrazol-1-yl)(4-(4-chloro-2-morpholinobenzyl)piperazin-1-yl)methanone] | – | – | – | < 100 | 100 to 1000 | < 100 | – | – | – |
| O=C(c1cnn(C(=O)N2CCN(C(c3ccc(Cl)cc3)c3ccc(Cl)cc3)CC2)c1)N1CCCC1 [Example 48, (4-(Bis(4-chlorophenyl)methyl)piperazin-1-yl)(4-(pyrrolidine-1-carbonyl)-1H-pyrazol-1-yl)methanone] | – | – | – | 100 to 1000 | > 1000 | 100 to 1000 | – | – | – |
| O=C(NC1CC1)c1cnn(C(=O)N2CCN(C(c3ccc(Cl)cc3)c3ccc(Cl)cc3)CC2)c1 [Example 49, 1-(4-(Bis(4-chlorophenyl)methyl)piperazine-1-carbonyl)-N-cyclopropyl-1H-pyrazole-4-carboxamide] | – | – | – | 100 to 1000 | > 1000 | 100 to 1000 | – | – | – |
| O=C(N1CCN(Cc2ccc(Cl)cc2N2CCCC2)CC1)n1cc(Cl)cn1 [Example 50, (4-Chloro-1H-pyrazol-1-yl)(4-(4-chloro-2-(pyrrolidin-1-yl)benzyl)piperazin-1-yl)methanone] | – | – | – | < 100 | 100 to 1000 | < 100 | – | – | – |
| O=C(c1cnn(C(=O)N2CCN(C(c3ccc(Cl)cc3)c3ccc(Cl)cc3)CC2)c1)N1CCCCC1 [Example 66, (4-(Bis(4-chlorophenyl)methyl)piperazin-1-yl)(4-(piperidine-1-carbonyl)-1H-pyrazol-1-yl)methanone] | > 75 | 25 to 75 | > 75 | 100 to 1000 | > 1000 | 100 to 1000 | > 75 | < 25 | > 75 |
| O=C(c1cnn(C(=O)N2CCN(C(c3ccc(Cl)cc3)c3ccc(Cl)cc3)CC2)c1)N1CCC1 [Example 68, Azetidin-1-yl(1-(4-(bis(4-chlorophenyl)methyl)piperazine-1-carbonyl)-1H-pyrazol-4-yl)methanone] | > 75 | > 75 | > 75 | 100 to 1000 | > 1000 | 100 to 1000 | > 75 | < 25 | > 75 |
| Cc1cc(-c2ccccc2)ccc1CN1CCN(C(=O)n2cccn2)CC1 [Example 94, (4-((3-Methyl-[1,1′-biphenyl]-4-yl)methyl)piperazin-1-yl)(1H-pyrazol-1-yl)methanone] | – | – | – | < 100 | 100 to 1000 | > 1000 | – | – | – |
| O=C(N1CCN(C(c2ccc3c(c2)COC3)c2ccc3c(c2)COC3)CC1)n1cc(Cl)cn1 [Example 95, (4-(Bis(1,3-dihydroisobenzofuran-5-yl)methyl)piperazin-1-yl)(4-chloro-1H-pyrazol-1-yl)methanone] | – | – | – | – | – | – | > 75 | < 25 | > 75 |
| O=C(N1CCCCC1)n1cc(Cl)cn1 [Example 96, (4-Chloro-1H-pyrazol-1-yl)(piperidin-1-yl)methanone] | > 75 | > 75 | > 75 | – | – | – | – | – | – |
| O=C(N1CCOCC1)n1cc(Cl)cn1 [Example 97, (4-Chloro-1H-pyrazol-1-yl)(morpholino)methanone] | < 25 | > 75 | < 25 | – | – | – | – | – | – |
| O=C(N1CCCC1)n1cc(Cl)cn1 [Example 98, (4-Chloro-1H-pyrazol-1-yl)(pyrrolidin-1-yl)methanone] | 25 to 75 | > 75 | < 25 | – | – | – | – | – | – |
| O=C(N1CCN(Cc2c(N3CCCC3)cccc2C(F)(F)F)CC1)n1cc(Cl)cn1 [Example 99, (4-Chloro-1H-pyrazol-1-yl)(4-(2-(pyrrolidin-1-yl)-6-(trifluoromethyl)benzyl)piperazin-1-yl)methanone] | – | – | – | – | – | – | > 75 | > 75 | > 75 |
| O=C(N1CCN(C(c2ccc(Cl)cc2)c2ccc(Cl)cc2)CC1)n1cc(Cl)cn1 [Example 100, (4-(Bis(4-chlorophenyl)methyl)piperazin-1-yl)(4-chloro-1H-pyrazol-1-yl)methanone] | – | – | – | < 100 | > 1000 | 100 to 1000 | – | – | – |
| CC(C)n1cc(CN2CCN(C(=O)n3cc(Cl)cn3)CC2)c(-c2ccccc2)n1 [Example 101, (4-Chloro-1H-pyrazol-1-yl)(4-((1-isopropyl-3-phenyl-1H-pyrazol-4-yl)methyl)piperazin-1-yl)methanone] | – | – | – | – | – | – | > 75 | > 75 | > 75 |
| O=C(N1CCN(Cc2ccc(Cl)cc2N2CCC3(CCOCC3)C2)CC1)n1cc(Cl)cn1 [Example 102, (4-Chloro-1H-pyrazol-1-yl)(4-(4-chloro-2-(8-oxa-2-azaspiro[4.5]decan-2-yl)benzyl)piperazin-1-yl)methanone] | – | – | – | < 100 | > 1000 | < 100 | > 75 | < 25 | > 75 |
| Cc1ccc(-c2cnn(C(=O)N3CCCC3)c2)cc1 [Example 104, Pyrrolidin-1-yl(4-(p-tolyl)-1H-pyrazol-1-yl)methanone] | < 25 | > 75 | > 75 | – | – | – | – | – | – |
| O=C(N1CCCC1)n1cc(-c2ccc(Cl)cc2)cn1 [Example 105, (4-(4-Chlorophenyl)-1H-pyrazol-1-yl)(pyrrolidin-1-yl)methanone] | < 25 | > 75 | > 75 | – | – | – | – | – | – |
| O=C(N1CCCC1)n1cc(-c2ccc(-c3ccccc3Cl)cc2)cn1 [Example 108, (4-(2′-Chloro-[1,1′-biphenyl]-4-yl)-1H-pyrazol-1-yl)(pyrrolidin-1-yl)methanone] | < 25 | < 25 | > 75 | – | – | – | – | – | – |
| O=C(N1CCN(Cc2c(N3CCCC3)cccc2C(F)(F)F)CC1)n1cc(-c2ccccc2)cn1 [Example 109, (4-Phenyl-1H-pyrazol-1-yl)(4-(2-(pyrrolidin-1-yl)-6-(trifluoromethyl)benzyl)piperazin-1-yl)methanone] | 25 to 75 | > 75 | > 75 | – | – | – | – | – | – |
| Cc1cnn(C(=O)N2CCN(Cc3c(N4CCCC4)cccc3C(F)(F)F)CC2)c1 [Example 111, (4-Methyl-1H-pyrazol-1-yl)(4-(2-(pyrrolidin-1-yl)-6-(trifluoromethyl)benzyl)piperazin-1-yl)methanone] | > 75 | 25 to 75 | > 75 | 100 to 1000 | > 1000 | 100 to 1000 | – | – | – |

Reference: patent US10093630B2, “Pyrazole compounds and methods of making and using same” (ABIDE THERAPEUTICS, INC., priority 2014, dated 2018)
